Test system: p-388 (linfocitic leukemia)
Test: biological activity on P-388 leukemia cultures
Type: cell-based

## O=C1c2c(O)cc(O)cc2O[C@H](c2ccc(O)c(O)c2)[C@H]1O [taxifoline]
  anticarcinogenic activity on P-388 cultures (leufocytic leukemia): has shown anticarcinogenic activity
